Laboratory results from article PMC12449476, “Transient ligand contacts of the intrinsically disordered N-terminus of neuropeptide Y2 receptor regulate arrestin-3 recruitment” (Nature Communications, 2025).

Assays:
[1] = test system: bicelle-reconstituted full-length cysteine-deficient Y2R; test: XL-MS competition experiment; format: binding, human; details: 50 × molar excess competitor
Method: (§1) Samples were denatured in 10% SDS, 100 mM Tris-HCl (pH 7.5) and subjected to S-Trap enrichment (Protifi, Fairport, NY, USA). Afterwards, proteins were reduced, alkylated, and enzymatically digested with AspN and trypsin according to an existing protocol. Samples were stored at − 20 °C before LC-MS analysis.

WT Nluc-Y2R-eYFP = target: T1, WT Nluc-Y2R-eYFP (Homo sapiens, UniProt P49146); details: small molecule antagonist vs labeled NPY; cited from earlier work
T1 construct: expressed in transfected cells; host or cells: membrane preparations of transiently transfected HEK293
T1 sequence (P49146 1-381): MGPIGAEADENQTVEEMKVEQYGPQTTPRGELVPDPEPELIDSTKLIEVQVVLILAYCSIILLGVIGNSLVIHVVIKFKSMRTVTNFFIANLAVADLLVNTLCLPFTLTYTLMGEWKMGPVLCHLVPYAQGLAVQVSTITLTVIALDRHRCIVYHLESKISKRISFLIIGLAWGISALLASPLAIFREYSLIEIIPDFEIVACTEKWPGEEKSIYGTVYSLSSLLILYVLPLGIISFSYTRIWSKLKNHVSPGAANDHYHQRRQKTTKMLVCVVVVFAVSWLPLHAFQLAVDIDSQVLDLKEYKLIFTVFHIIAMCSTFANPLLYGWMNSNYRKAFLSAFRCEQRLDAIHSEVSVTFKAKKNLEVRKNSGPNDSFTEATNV
Text: In the following, we are addressing the Reviewer’s comments point‐by‐point. We quote statements from the Reviewer in bold face. We refer to changes made in the manuscript in yellow italics. Reviewer #1 (Remarks to the Author): In this work ...

photo-NPY = test: XL-MS, intramolecular NPY cross-links; format: binding; details: detected in N-term peptide experiment only
Method: as §1
Peptide mixtures were reconstituted in an aqueous solution of 3% (v/v) ACN and 0.05% (v/v) TFA prior to LC-TIMS-MS/MS analysis on an UltiMate 3000 RSLC nano-HPLC system (Thermo Fisher Scientific, Waltham, MA, USA) coupled to a timsTOF Pro mass spectrometer (Bruker Daltonics, Bremen, Germany). Peptides were trapped and desalted on a C18 precolumn (Acclaim PepMap 100, 300 μm × 5 mm, 5 μm, 100 Å, Thermo Fisher Scientific, Waltham, MA, USA) with aqueous 0.1 % (v/v) TFA at a flow rate of 30 μL/min (precolumn temperature 50 °C). […]
Identification of cross-links was performed by a MeroX (v. 2.0.1.7, ref. [77]) search against a fasta file containing the amino acid sequences of triply diazirine-substituted [L17pL, L24pL, L30pL] […] In addition, DDA-PASEF data were analyzed with Skyline[78] as described recently. […]

[2] = test system: bicelle-reconstituted full-length cysteine-deficient Y2R; test: XL-MS with full-length Y2R; format: binding, human; details: LC-TIMS-MS/MS
Method: as §1
Peptide mixtures were reconstituted in an aqueous solution of 3% (v/v) ACN and 0.05% (v/v) TFA prior to LC-TIMS-MS/MS analysis on an UltiMate 3000 RSLC nano-HPLC system (Thermo Fisher Scientific, Waltham, MA, USA) coupled to a timsTOF Pro mass spectrometer (Bruker Daltonics, Bremen, Germany). Peptides were trapped and desalted on a C18 precolumn (Acclaim PepMap 100, 300 μm × 5 mm, 5 μm, 100 Å, Thermo Fisher Scientific, Waltham, MA, USA) with aqueous 0.1 % (v/v) TFA at a flow rate of 30 μL/min (precolumn temperature 50 °C). Using a flow of 300 nL/min, peptide mixtures were then eluted and separated on a self-packed Picofrit C18 column, 75 µm ID x 40 cm, Tip ID 15 µm (New Objective, Littleton, MA, USA), packed with Reprosil-Pur 120 C18-AQ, 3 µm, 120 Å material (Dr. Maisch GmbH, Ammerbuch, Germany) or a µPAC 50 C18 column (PharmaFluidics, Thermo Fisher Scientific, Germany). Linear gradients were from 3% to 50% B over 90 min, 50% to 85% B (over 5 min) and 85% B (5 min); solvent A: water containing 0.1% (v/v) formic acid and solvent B: acetonitrile containing 0.1% (v/v) formic acid, the separation column was kept at 40 °C. To align results obtained with different chromatographic conditions, unmodified peptides were used as indexed retention time (iRT) standards.
Identification of cross-links was performed by a MeroX (v. 2.0.1.7, ref. [77]) search against a fasta file containing the amino acid sequences of triply diazirine-substituted [L17pL, L24pL, L30pL] […] The following settings were employed: semi-specific proteolytic cleavage: C-terminal at Lys and ArgR and N-terminal at Asp and Glu with up to 3 missed cleavages for each site and a maximum of 5 missed cleavages per peptide; peptide length of 4–25 amino acids; fixed modifications: carbamidomethylation of Cys; variable modifications: oxidation of Met; precursor and fragment mass tolerances were set to 10 ppm. […] Two searches were performed per data set, considering photo-leucine reactivity towards (i) only the acidic amino acids Asp and Glu and the protein C-terminus and (ii) reactivity towards all 20 amino acids. Peptide spectral matches were initially filtered to a 10% intensity score, a minimum score cut-off of 30 and 1% FDR (false discovery rate). Lenient FDR filters were compensated by manual validation of all proposed cross-links. In addition, DDA-PASEF data were analyzed with Skyline[78] as described recently. […]

Compound	Effect of excess unlabeled ligand on cross-links [1]	Blocking of high- and low-affinity binding (WT Nluc-Y2R-eYFP)	Intra-NPY cross-linked positions (photo-NPY)	Number of contact points to Y2R NT [2]	Number of contacts to ECL2 [2]	Number of cross-links to extracellular regions of Y2R [2]	Number of peptide-receptor cross-links ([2]; total)
CCN(CC)C(=O)C(c1ccccc1)N1CCN(c2ccc(NC(=O)c3ccccc3-c3cccnc3)cc2F)CC1 (stereo not shown) [JNJ-31020028, N-(4-{4-[2-(diethylamino)-2-oxo-1-phenylethyl]piperazin-1-yl}-3-fluorophenyl)-2-pyridin-3-ylbenzamide]	essentially abolished all cross-links	can be blocked	–	–	–	–	–
photo-NPY: triply diazirine-substituted photo-leucine [L17pL, L24pL, L30pL] NPY variant	–	–	pL30 & D6	16	three	34	40
